Literature values as cited in publication PMC11843658 (Journal of Enzyme Inhibition and Medicinal Chemistry, 2025).

Tested on: Kasumi-1 xenograft
Design: method as in PMID 32551003
Details: Kasumi-1 xenograft model of acute myeloid leukaemia; cited from earlier work

For `CC/C(=C\c1ccccc1)[C@@H]1C[C@H]1NC1CC2(C1)CN(CCO)C2` [Compound 5], the “anticancer effects in xenograft model” value is listed as “potent anticancer effects”.
